From PubChem BioAssay AID328 (DTP/NCI, 2004)
Values joined by “and” are separate entries in the source; they are usually repeats but may differ in a detail not shown here. Identical values can stand only once. Inconclusive results and toxic doses are left out. Rule for the calls: active = survival T/C of 150% or more; inactive = T/C below 125% in these data.

System: BDF1 mice, P388 leukemia ip, median survival T/C
Experiment: NCI In Vivo Anticancer Drug Screen. Data for tumor model P388 Leukemia (intraperitoneal) in B6D2F1 (BDF1) mice
Conditions: endpoint: median survival time, higher = longer survival
How it was run: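 Vehicle-dosed animals serve as the reference; survival of compound-dosed, tumour-implanted mice is divided by it.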

[1] = dose: 100.0 mg/kg/injection, schedule: Q01DX009 (ip), vehicle: saline with Tween-80
[2] = dose: 200.0 mg/kg/injection, schedule: Q01DX009 (ip), vehicle: saline with Tween-80
[3] = dose: 400.0 mg/kg/injection, schedule: Q01DX009 (ip), vehicle: saline with Tween-80
[4] = dose: 25.0 mg/kg/injection, schedule: Q01DX009 (ip), vehicle: saline with Tween-80
[5] = dose: 6.25 mg/kg/injection, schedule: Q01DX009 (ip), vehicle: saline with Tween-80
[6] = dose: 12.5 mg/kg/injection, schedule: Q01DX009 (ip), vehicle: saline with Tween-80

Measured: T/C

COc1ccc(OC)c(Br)c1
inactive: [1] 110 % of control | dose: 100.0 mg/kg/injection, schedule: Q04DX003 (ip), vehicle: saline with Tween-80 100 % of control | dose: 178.0 mg/kg/injection, schedule: Q01DX009 (ip), vehicle: saline with Tween-80 118 % of control | [2] 120 % of control | dose: 200.0 mg/kg/injection, schedule: Q04DX003 (ip), vehicle: saline with Tween-80 100 % of control | dose: 266.0 mg/kg/injection, schedule: Q01DX009 (ip), vehicle: saline with Tween-80 118 % of control | [3] 109 % of control | dose: 400.0 mg/kg/injection, schedule: Q04DX003 (ip), vehicle: saline with Tween-80 113 % of control

COc1cc2c(c(OC)c1OC)-c1ccc(SC)c(=O)cc1[C@@H](NC1OC(CO)C(O)C(O)C1O)CC2 (stereo partly specified)
active: dose: 50.0 mg/kg/injection, schedule: Q01DX009 (ip), vehicle: saline 155 % of control

COC1=C(N)C(=O)c2nc(-c3nc(C(=O)O)c(C)c(-c4ccc(OC)c(OC)c4O)c3N)ccc2C1=O
active: dose: 0.05 mg/kg/injection, schedule: Q01DX009 (ip), vehicle: saline 161 % of control | dose: 0.1 mg/kg/injection, schedule: Q01DX009 (ip), vehicle: saline 152 % of control
inactive: dose: 0.01 mg/kg/injection, schedule: Q01DX010 (ip), vehicle: saline 110 % of control | dose: 0.02 mg/kg/injection, schedule: Q01DX009 (ip), vehicle: other 118 % of control | dose: 0.03 mg/kg/injection, schedule: Q01DX009 (ip), vehicle: dioxane 97 % of control | dose: 0.03 mg/kg/injection, schedule: Q01DX009 (ip), vehicle: saline 114 % of control | dose: 0.04 mg/kg/injection, schedule: Q01DX009 (ip), vehicle: dioxane 99 % of control and 100 % of control | dose: 0.05 mg/kg/injection, schedule: Q01DX009 (ip), vehicle: dioxane 114 % of control | dose: 0.05 mg/kg/injection, schedule: Q01DX010 (ip), vehicle: water 118 % of control | dose: 0.05 mg/kg/injection, schedule: Q04DX002 (ip), vehicle: saline 112 % of control | dose: 0.06 mg/kg/injection, schedule: Q01DX009 (ip), vehicle: dioxane 114 % of control | dose: 0.1 mg/kg/injection, schedule: Q01DX010 (ip), vehicle: saline 118 % of control | dose: 0.1 mg/kg/injection, schedule: Q04DX003 (ip), vehicle: other 118 % of control | dose: 0.13 mg/kg/injection, schedule: Q01DX009 (oral), vehicle: other 109 % of control | dose: 0.2 mg/kg/injection, schedule: Q01DX001 (ip), vehicle: other 118 % of control | dose: 0.2 mg/kg/injection, schedule: Q01DX010 (ip), vehicle: water 118 % of control | dose: 0.2 mg/kg/injection, schedule: Q04DX002 (ip), vehicle: saline 114 % of control | dose: 0.2 mg/kg/injection, schedule: Q04DX003 (ip), vehicle: other 118 % of control | dose: 0.2 mg/kg/injection, schedule: Q08DX002 (ip), vehicle: other 118 % of control | dose: 0.25 mg/kg/injection, schedule: Q01DX009 (oral), vehicle: other 109 % of control | dose: 0.4 mg/kg/injection, schedule: Q01DX001 (ip), vehicle: other 118 % of control | dose: 0.5 mg/kg/injection, schedule: Q01DX001 (ip), vehicle: other 122 % of control | dose: 0.5 mg/kg/injection, schedule: Q01DX009 (oral), vehicle: other 109 % of control | dose: 0.5 mg/kg/injection, schedule: Q03HX008 (ip), vehicle: other 109 % of control | dose: 0.5 mg/kg/injection, schedule: Q04DX003 (ip), vehicle: other 116 % of control | dose: 0.8 mg/kg/injection, schedule: Q01DX001 (ip), vehicle: other 113 % of control | dose: 0.8 mg/kg/injection, schedule: Q01DX009 (ip), vehicle: saline 117 % of control | dose: 0.8 mg/kg/injection, schedule: Q04DX003 (ip), vehicle: other 118 % of control | dose: 0.8 mg/kg/injection, schedule: Q08DX002 (ip), vehicle: other 109 % of control | dose: 1.0 mg/kg/injection, schedule: Q01DX001 (ip), vehicle: other 109 % of control | dose: 1.0 mg/kg/injection, schedule: Q01DX001 (oral), vehicle: other 118 % of control | dose: 1.0 mg/kg/injection, schedule: Q01DX009 (oral), vehicle: other 100 % of control | dose: 1.0 mg/kg/injection, schedule: Q03HX008 (ip), vehicle: other 109 % of control | dose: 1.0 mg/kg/injection, schedule: Q08DX002 (ip), vehicle: other 100 % of control | dose: 2.0 mg/kg/injection, schedule: Q01DX001 (oral), vehicle: other 100 % of control | dose: 2.0 mg/kg/injection, schedule: Q01DX009 (oral), vehicle: other 95 % of control | dose: 4.0 mg/kg/injection, schedule: Q01DX001 (oral), vehicle: other 95 % of control | dose: 31.2 micrograms/kg/injection, schedule: Q01DX009 (ip), vehicle: other 116 % of control | dose: 62.5 micrograms/kg/injection, schedule: Q03HX016 (ip), vehicle: other 116 % of control | dose: 62.5 micrograms/kg/injection, schedule: Q03HX024 (ip), vehicle: other 116 % of control | dose: 125.0 micrograms/kg/injection, schedule: Q03HX016 (ip), vehicle: other 100 % of control | dose: 125.0 micrograms/kg/injection, schedule: Q03HX024 (ip), vehicle: other 91 % of control | dose: 250.0 micrograms/kg/injection, schedule: Q01DX009 (ip), vehicle: other 116 % of control | dose: 667.0 micrograms/kg/injection, schedule: Q04DX003 (ip), vehicle: alkali diluted with saline 120 % of control

Cc1noc2nccnc12
inactive: [4] 95 % of control | dose: 50.0 mg/kg/injection, schedule: Q01DX009 (ip), vehicle: saline with Tween-80 95 % of control

O=[N+]([O-])c1cc(Br)c(N2CCCC2)cc1N1CCCC1
inactive: dose: 100.0 mg/kg/injection, schedule: Q01DX009 (ip), vehicle: Klucel (hydroxypropylcellulose) (HPC) 104 % of control | dose: 100.0 mg/kg/injection, schedule: Q04DX003 (ip), vehicle: Klucel (hydroxypropylcellulose) (HPC) 100 % of control | dose: 200.0 mg/kg/injection, schedule: Q01DX009 (ip), vehicle: Klucel (hydroxypropylcellulose) (HPC) 100 % of control | dose: 200.0 mg/kg/injection, schedule: Q04DX003 (ip), vehicle: Klucel (hydroxypropylcellulose) (HPC) 95 % of control | dose: 400.0 mg/kg/injection, schedule: Q01DX009 (ip), vehicle: Klucel (hydroxypropylcellulose) (HPC) 100 % of control | dose: 400.0 mg/kg/injection, schedule: Q04DX003 (ip), vehicle: Klucel (hydroxypropylcellulose) (HPC) 110 % of control

CC1(C)C2=CCCC3(OCCO3)C2(C)CCC1O (stereo unspecified)
inactive: [1] 100 % of control | [2] 100 % of control | [3] 90 % of control

Cc1cccc(C)c1NC(=S)N(C)C
inactive: dose: 3.13 mg/kg/injection, schedule: Q01DX009 (ip), vehicle: saline with Tween-80 100 % of control | [5] 100 % of control | dose: 12.0 mg/kg/injection, schedule: Q01DX001 (ip), vehicle: Klucel (hydroxypropylcellulose) (HPC) 109 % of control | [6] 95 % of control | dose: 25.0 mg/kg/injection, schedule: Q01DX001 (ip), vehicle: Klucel (hydroxypropylcellulose) (HPC) 100 % of control | dose: 50.0 mg/kg/injection, schedule: Q01DX001 (ip), vehicle: Klucel (hydroxypropylcellulose) (HPC) 100 % of control | dose: 100.0 mg/kg/injection, schedule: Q04DX003 (ip), vehicle: saline 100 % of control

c1c2c(cc3c1OCO3)CC1CCCN1CC2 (stereo unspecified)
inactive: dose: 0.5 mg/kg/injection, schedule: Q01DX009 (ip), vehicle: saline with Tween-80 108 % of control | dose: 1.0 mg/kg/injection, schedule: Q01DX009 (ip), vehicle: saline with Tween-80 100 % of control | dose: 4.0 mg/kg/injection, schedule: Q01DX009 (ip), vehicle: saline with Tween-80 108 % of control | dose: 8.0 mg/kg/injection, schedule: Q01DX009 (ip), vehicle: saline with Tween-80 108 % of control

Oc1ccc2ccccc2c1N=Nc1ccc(F)cc1
inactive: [1] 100 % of control | [2] 90 % of control | [3] 95 % of control

O=c1cc(-c2cccnc2)oc2c1ccc1ccccc12
inactive: dose: 12.5 mg/kg/injection, schedule: Q01DX009 (ip), vehicle: other 89 % of control | dose: 25.0 mg/kg/injection, schedule: Q01DX009 (ip), vehicle: other 91 % of control | dose: 50.0 mg/kg/injection, schedule: Q01DX009 (ip), vehicle: other 95 % of control | dose: 100.0 mg/kg/injection, schedule: Q01DX009 (ip), vehicle: other 91 % of control | dose: 200.0 mg/kg/injection, schedule: Q01DX009 (ip), vehicle: other 87 % of control

O=C1NC(Cc2ccccc2)C(=O)NC1Cc1ccccc1 (stereo unspecified)
inactive: [5] 106 % of control | [6] 101 % of control | [4] 108 % of control
